The record followed here is patent US20100159030A1, “METHODS FOR DETECTING AND MODULATING THE SENSITIVITY OF TUMOR CELLS TO ANTI-MITOTIC AGENTS AND FOR MODULATING TURMORGENICITY” (NewSouth Innovations Pty Limited, priority 2007, published 2010).

Where two headings read alike, the source gives them in different places.

Experiment [1] concerns CCRF-CEM Leukaemia cells. Type of experiment: cell-based. As to conditions: 2ME2-resistant sublines. The source says: The tubulin-binding agent 2-methoxyestradiol (2ME2) binds to β-tubulin near the colchicine-binding site, inhibits microtubule polymerization, and induces mitotic arrest. CCRF-CEM Leukaemia cells that display increasing resistance to 2ME2 were selected, and four of the highly 2ME2 resistant leukaemia sublines were chosen for detailed analysis.

The subject of experiment [2] is Calu-6 cells. Kind of experiment: Immunofluorescent staining of microtubules (α-tubulin) after drug treatment. In kind it is cell-based, Human. As to conditions: 1 h, vs control. Here is the method:
Transfected Calu-6 cells were grown on sterile chamber slides until 60-70% confluent. Cells were then treated with paclitaxel and vincristine for 1 h at 10 nM. Cells were fixed in methanol and processed for staining as previously described (Don et al. (2004) supra) with minor modifications. Fixed cells were stained with α-tubulin (1:400 in 5% FCS/PBS, Sigma) for 30 min followed by Cy2 anti-mouse fluorescent tagged antibody (1:1,000 in 5% FCS/PBS, GE Healthcare). Slides were mounted on a coverslip using DAPI II Counterstain (Vysis Inc., Downers Grove, Ill.). Slides were viewed using a Zeiss Axioplan 2 Immunofluorescence Microscope (Mannheim, Germany) with Image-Pro® Plus 4.1 software (Media Cybernetics, L.P., Silver Spring, Md.).
To assess the effects of βIII downregulation on microtubule organization, immunofluorescence staining was performed on transfected Calu-6 cells as follows. Briefly, siRNA transfected cells were plated in glass chamber slides and allowed to reach 70% confluence. Cells were then treated with 10 nM of paclitaxel or vincristine for 1 hour. Drug was then removed by washing cells with PBS and blocked in 10% FCS/PBS. For dual staining, cells were first labelled with an antibody to class III β-tubulin which was exposed to cells incubated at 37° C. for 30 minutes in a humidified chamber. Following washes in 0.1% Tween 20/PBS at room temperature, the slides were incubated with Cy3 anti-mouse fluorescent-tagged antibody (GE Healthcare) for 40 minutes in a humidified chamber in the dark at room temperature. Following incubation, the slides were washed again in 0.1% Tween 20/PBS. This was then followed by staining with α-tubulin and Cy2 anti-mouse fluorescent tagged antibody (GE Healthcare). Slides were mounted on a coverslip using DAPI II Counterstain (Vysis Inc., Downers Grove, Ill.). Immunofluorescence microscopy was performed and images were captured using a Sensicam Charged Coupled Device camera (PCO Imaging, Kelheim, Bavaria, Germany) and the Image-Pro® Plus 4.1 software (Media Cybernetics, L.P., Silver Spring, Md.).

In experiment [3] the test system is NSCLC H460 cells. Description: Drug-treated clonogenic assay (surviving fraction, ID50) on siRNA/shRNA-transfected cells. In kind it is cell-based, Human. As to conditions: for IC50: Homo sapiens; for change in drug sensitivity (clonogenic survival): H460. The gist of the method:
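Cells transfected with siRNA/shRNA for 24 h, plated (600 Calu-6 or 150 H460 cells/well) and after 4-6 h treated with anti-mitotic drugs for 72 h at 37 °C, then grown drug-free 7-10 days. Crystal-violet colonies counted; surviving fraction corrected for plating efficiency; ID50 = 50% colony reduction vs untreated, mean of ≥4 experiments.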

Experiment [4] relates to Calu-6 cells. Kind of experiment: Drug-treated clonogenic assay on siRNA-transfected cells. In kind it is cell-based, Human. The protocol: Cells were transfected for 24 h and approximately 600 cells (for Calu-6) or 150 cells (for H460) were seeded into each well of a 6-well plate and allowed to attach for 4-6 h. The cell lines used in this study were not subject to prior drug selection, and are likely to represent intrinsic drug resistance observed in lung carcinoma.
Cells were then treated with increasing concentrations of various anti-mitotic drugs. Following a 3-day incubation at 37° C., the drug-containing medium was removed and replaced with fresh complete medium. Medium was changed at 3-4 day intervals for 7 to 10 days until visible colonies formed. […] Surviving colonies were simultaneously fixed and stained with 0.5% crystal violet in methanol, rinsed with water to remove excess stain and air-dried overnight.
The colonies in each well were manually counted, and the results were presented as surviving fraction according to the formula: surviving fraction was calculated as follows: colony number/(number of cells seeded×plating efficiency), where plating efficiency is equivalent to the colony number divided by the number of cells seeded in the drug-free medium. Dose-response curves were plotted for each drug-cell line combination and inhibitory dose (ID50) values were extrapolated from this curve using GraphPad Prism program (GraphPad Software, version 4, San Diego, Calif.). ID50 was defined as the concentration of the drug required to reduce the number of colonies in drug-treated wells to 50% of that of the relevant untreated control wells. The ID50 values were the means of at least four independent experiments.
To quantitate any change in drug sensitivity, drug treated clonogenic assays were performed. Twenty-four hours after siRNA transfection, cells were harvested and plated into 6-well plates for 6 h, prior to the addition of various drugs as indicated in the figure legends. After 72 h incubation, the drug-containing media was removed and replaced with complete growth media. Medium was changed every 3 days for 7 to 10 days until visible colonies formed. Colonies were simultaneously fixed and stained with 0.5% crystal violet in methanol, and manually counted. Individual stained colonies in each well were counted and the surviving fraction was calculated as follows: colony number/(number of cells seeded×plating efficiency), where plating efficiency equals the colony number divided by the number of cells seeded in drug-free media.

[5] abbreviates: class II β-tubulin siRNA knockdown vs controls.
Where [6] appears, read: class IVb β-tubulin siRNA knockdown vs controls.

As for `CC(=O)O[C@H]1C(=O)[C@@]2(C)[C@H]([C@H](OC(=O)c3ccccc3)[C@]3(O)C[C@H](OC(=O)[C@H](O)[C@@H](NC(=O)c4ccccc4)c4ccccc4)C(C)=C1C3(C)C)[C@]1(OC(C)=O)CO[C@@H]1C[C@@H]2O` [Paclitaxel, paclitaxel], the “cross-resistance of the 2ME2-resistant cells” value in experiment [1] is “not cross resistant”. Besides, the microtubule morphology entry in experiment [2] (βII siRNA-transfected Calu-6, 10 nM drug) is “did not appear significantly different”; in experiment [2] (βIII siRNA-transfected Calu-6, 10 nM drug) it was “extensive disruption of the microtubule cytoskeleton”. Besides, the IC50 in experiment [3] (NCI-H460, Table 2, 27-mer βIII siRNA Sequence-8 H460 cells, read-out: ID50 ± SEM) came to 1.7 ± 0.043 nM; in experiment [3] (NCI-H460, Table 2, 27-mer βIII siRNA Sequence-11 H460 cells, read-out: ID50 ± SEM) it was 1.78 ± 0.07 nM; in experiment [3] (NCI-H460, Table 2, Ctrl-1 (27-mer control siRNA) H460 cells, read-out: ID50 ± SEM), 2.89 ± 0.165 nM; in experiment [3] (NCI-H460, Table 2, mock-transfected H460 cells, read-out: ID50 ± SEM) it was 2.63 ± 0.136 nM; in experiment [3] (NCI-H460, Table 3, H460 Ctrl clone 1, read-out: Paclitaxel ID50 ± SEM), 2.75 ± 0.131 nM; in experiment [3] (NCI-H460, Table 3, H460 Ctrl clone 2, read-out: Paclitaxel ID50 ± SEM), 2.83 ± 0.093 nM. Besides, the IC50 was determined as 1.36 ± 0.087 nM in experiment [3] (NCI-H460, Table 3, H460 βIII shRNA clone 4, read-out: Paclitaxel ID50 ± SEM); 1.78 ± 0.07 nM in experiment [3] (NCI-H460, Table 3, H460 βIII shRNA clone 59, read-out: Paclitaxel ID50 ± SEM); 1.58 ± 0.095 nM in experiment [3] (NCI-H460, Table 3, H460 βIII shRNA clone 60, read-out: Paclitaxel ID50 ± SEM). For the same compound, the “RS (relative sensitivity)” value in experiment [3] (Table 2, 27-mer βIII siRNA Sequence-8 H460 cells) was “(1.55, <0.0001***)”; in experiment [3] (Table 2, 27-mer βIII siRNA Sequence-11 H460 cells), “(1.42, 0.0001***)”; in experiment [3] (Table 2, Ctrl-1 H460 cells), “(0.91, NS)”; in experiment [3] (Table 3, Ctrl clone 2 compared to ctrl clone 1), “(0.97, NS)”; in experiment [3] (Table 3, βIII shRNA clone 4 compared to ctrl clone 1), “(2.03, <0.0001***)”; in experiment [3] (Table 3, βIII shRNA clone 59 compared to ctrl clone 1) it was “(1.55, <0.0001***)”. The “RS (relative sensitivity)” value in experiment [3] (Table 3, βIII shRNA clone 60 compared to ctrl clone 1) is “(1.74, <0.0001***)”. Moreover, the “change in drug sensitivity (clonogenic survival)” value in experiment [3] (setting [5]) is given as “did not significantly potentiate the cytotoxicity”; in experiment [3] (setting [6]), “did not significantly enhance the cytotoxicity”; in experiment [3] (βIII-tubulin siRNA silencing vs controls) it was “significant increase in sensitivity”; in experiment [4] (setting [5]), “did not significantly potentiate the cytotoxicity”; in experiment [4] (setting [6]), “no effect on sensitivity”.
